“Also recorded” adds a separate entry of the source. Like-named read-outs stand apart in the source and are kept apart here. Marks after values point to notes of the source that are not given here.
Legend:
AP-1 [1] = test: AP-1 inhibitor screen: basal AP-1-dependent luciferase expression in HEK/AP-1 cell line; format: cell-based; conditions: for inhibition at 1 µM: AP1, determined as described in Example 398
Outline: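 Compound effects on unstimulated reporter signal were tested: 1.0 μM compound (0.3% DMSO) for 48 hr on HEK cells bearing an AP-1 (TGACTAA ×3)-luciferase construct, seeded 24 hr earlier. Triplicate luminescence means were normalized to DMSO-only wells; dose-response experiments were repeated 2–4 times.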

NF-κB [2] = test: NF-κB inhibitor screen: basal NF-κB-dependent luciferase expression in HEK/NF-κB cell line; format: cell-based; conditions: for inhibition at 1 µM: determined as described in Example 398, read-out: NFkB inhibition @ 1 uM; for inhibition of NF-κB (summary statement): summary in the disclosure
Outline: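 Basal NF-κB-driven luciferase (six-copy element, stable HEK293 line) was read with Brite-Glo. Compound was added in 0.3% DMSO 24 h post-plating, initially at 1.0 μM and then across 10–3300 nM in six steps, in triplicate wells. Signals were expressed relative to DMSO or to the lowest concentration tested.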

carageenan-induced edema = test: Carrageenan-induced rat paw edema test (anti-inflammatory activity); format: in vivo, Sprague-Dawley rats; conditions: for inhibition in vivo at 50 mg/kg: po, 3 h, carrageenan-induced rat paw edema, defined in Example 397, read-out: % Protection
Outline: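 Edema was raised by sub-plantar injection of 1% carrageenan into the right hind paw, 1 h after dosing 18 h-fasted male/female Sprague-Dawley rats (150-250 g) with 50 mg/kg p.o. in 0.1% CMC. Swelling was measured by displacement 3 h later and expressed as % protection against saline control.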

NF-κB [3] = test: TNF-α-induced NF-κB-dependent luciferase expression in HEK cells; format: cell-based; set-up: NF-κB % inhibition: concentration or dose not given beside the values
AP-1 [4] = test: PMA-induced AP-1 luciferase expression in HEK cells; format: cell-based

| Compound | inhibition at 1 µM (AP-1 [1]) [%] | inhibition at 1 µM (NF-κB [2]) [%] | inhibition of NF-κB (summary statement) (NF-κB [2]) | inhibition in vivo at 50 mg/kg (carageenan-induced edema) [%] | NF-κB % inhibition (NF-κB [3]; TNF-α-induced, compound added 1 h before inducer, luciferase 24 h later, normalized to DMSO vehicle) [%] | AP-1 % inhibition (AP-1 [4]; PMA-induced, compound added 1 h before inducer, luciferase 24 h later, normalized to DMSO vehicle) | inhibition in vivo at 50 mg/kg (carageenan-induced edema; Rattus norvegicus) [%] | IC50 (NF-κB [3]; 20 ng/ml TNF-α, 24 hr (FIG. 15), read-out: IC50, TNF-α induced NF-κB gene expression) [nM] | NFkB inhibition @ 1 uM (NF-κB [3]; 1 uM, luciferase in HEK/NF-κB cells, as described in Example 398) | AP-1 inhibition @ 1 uM (AP-1 [4]; 1 uM, luciferase in HEK/AP-1 cells, as described in Example 398) | basal AP-1-dependent luciferase, six-point dose response (AP-1 [1]; 10 nM-3300 nM (FIG. 14)) | basal NF-κB-dependent luciferase, six-point dose response (NF-κB [2]; 10 nM-3300 nM (FIG. 12), listed as Compound 35) | inhibition of basal NF-κB-dependent luciferase expression (NF-κB [2]; 3.3 μM (FIG. 12)) | % Protection P (carageenan-induced edema; rat paw edema, 50 mg/kg, reading 3 hours after carrageenan, [(Control−Test)/Control]×100%) [%] |
| --- | --- | --- | --- | --- | --- | --- | --- | --- | --- | --- | --- | --- | --- | --- |
| COc1ccc(-n2c(-c3sc(Nc4ccc(Cl)cc4)nc3-c3ccccc3)nc3ccccc3c2=O)cc1 [Example 225, 2-[2-(4-Chloro-phenylamino)-4-phenyl-thiazol-5-yl]-3-(4-methoxyphenyl)-3H-quinazolin-4-one] | 58 | 47 | capable of inhibiting | 80 | – | – | – | – | – | – | – | – | – | – |
| CNc1nc(C)c(-c2nc3ccccc3c(=O)n2-c2ccc(Cl)cc2)s1 [Example 244, 2-(4-Methyl-2-methylamino-thiazol-5-yl)-3-(4-chloro-phenyl)-3H-quinazolin-4-one] | 82 | 93 | – | – | 0 | 87** % | 71 | – | – | – | – | – | – | – |
| Bis-[2-(4-Chloro-phenylamino)-4-benzayl-thiazole-5-yl]-methanone [Example 134] | – | – | capable of inhibiting | – | – | – | – | < 100 | 67.87 | 72.77 | substantial activity at submicromolar concentrations | substantial activity at submicromolar concentrations; also recorded: robust inhibition | about 50% | 75.69 |
